The structures appear in SMILES notation. Structures can show the parent of a compound that is named as a salt.

The assay addresses T1, human orexin-2 (hOX2) receptors (Homo sapiens, UniProt O43614).
T1 construct: expressed in transfected cells
T1 sequence (O43614 1-444): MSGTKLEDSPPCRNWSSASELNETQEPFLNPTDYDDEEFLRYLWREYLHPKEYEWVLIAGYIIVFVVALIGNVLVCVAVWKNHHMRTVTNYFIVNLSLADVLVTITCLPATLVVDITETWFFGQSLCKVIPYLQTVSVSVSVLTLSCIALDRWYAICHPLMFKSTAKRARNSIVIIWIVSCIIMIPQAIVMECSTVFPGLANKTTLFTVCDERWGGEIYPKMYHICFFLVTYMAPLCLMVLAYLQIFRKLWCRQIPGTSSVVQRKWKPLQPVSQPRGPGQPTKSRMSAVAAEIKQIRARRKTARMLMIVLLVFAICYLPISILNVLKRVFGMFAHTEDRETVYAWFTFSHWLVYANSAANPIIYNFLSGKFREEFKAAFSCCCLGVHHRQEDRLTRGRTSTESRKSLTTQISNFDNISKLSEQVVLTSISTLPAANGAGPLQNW
Nature of the assay: Intracellular Ca2+ mobilization assay (FLIPR), antagonism of orexin-A. Type of assay: cell-based. As to conditions: CHO(dHFr-) cells stably expressing hOX2; orexin-A at EC80 as agonist; antagonist applied 25 min before; Kb=IC50/(1+[A]/EC50); read-out: Kb (μM) OX2R (human). Here is the method:
Intracellular Ca^2+ Mobilization Assay
The Chinese Hamster Ovary (dHFr—) mutant cell line stably expressing human orexin-1 (hOX1) or human orexin-2 (hOX2) receptors were maintained in Dulbecco's Modified Eagle Medium (1X) with GlutaMax™ 1, 4500 mg/L D-Glucose and Sodium Pyruvate (Catalog No. 31966-021, Invitrogen, Carlsbad, Calif.), 5% dialyzed fetal calf serum (Catalog No. 26400-044), 100 μg/ml penicillin and 100 μg/ml streptomycin. The cells were seeded at 5×10^4 cells/well in the poly-D-lysine treated, 96-well, black/clear-bottomed plates (Catalog No. BD356640, BD Biosciences, Palo Alto, Calif.). 24 h later, the cells were loaded for 1 h at 37° C. with 4 μM Flou-4 acetoxymethyl ester (Catalog No. F-14202, Molecular Probes, Eugene, Oreg.) in FLIPR buffer (1×HBSS, 20 mM HEPES, 2.5 mM Probenecid). Hanks' Balanced Salt Solution (HBSS) (10×) (catalog No. 14065-049) and HEPES (1M) (catalog No. 15630-056) were purchased from Invitrogen, Carlsbad, Calif. Probenecid (250 mM) (catalog No. P8761) was from Sigma, Buchs, Switzerland. The cells were washed five times with FLIPR buffer to remove excess dye and intracellular calcium mobilization, [Ca^2+]i were measured using a Fluorometric Imaging Plate Reader (FLIPR-96, Molecular Devices, Menlo Park, Calif.) as described previously (Malherbe et al., Mol. Pharmacol., 64, 823-832, 2003). Orexin A (catalog No. 1455, Toris Cookson Ltd, Bristol, UK) was used as agonist. Orexin A (50 mM stock solution in DMSO) was diluted in FLIPR buffer +0.1% BSA. The EC50 and EC80 values of orexin-A were measured daily from standard agonist concentration-response curves in CHO(dHFr—)—OX1R and —OX2R cell lines. All compounds were dissolved in 100% DMSO. Inhibition curves were determined by addition of 11 concentrations (0.0001-10 μM) of inhibitory compounds and using EC80 value of orexin-A as agonist (a concentration which gave 80% of max agonist response, determined daily). The antagonists were applied 25 min (incubation at 37° C.) before the application of the agonist. Responses were measured as peak increase in fluorescence minus basal, normalized to the maximal stimulatory effect induced by EC80 value of orexin-A or orexin- B. Inhibition curves were fitted according to the Hill equation: y=100/(1+(x/IC50)^nH), where nH=slope factor using Excel-fit 4 software (Microsoft). Kb values were calculated according to the following equation Kb=IC50/(1+[A]/EC50) where A is the concentration of agonist added which is very close to agonist EC80 value, and IC50 and EC50 values were derived from the antagonist inhibition and orexin-A or B agonist curves, respectively.
(In general: A change in cytosolic calcium serves as a functional read-out for many receptors and channels.)
As for `O=C([C@@H](O)c1ccc(F)cc1)N(CCc1ccc(C(F)(F)F)nc1)c1ccc2c(c1)C(O)CCO2` (single isomer, unassigned) [Example 102, (S)-2-(4-Fluoro-phenyl)-2-hydroxy-N-((S or R)-4-hydroxy-chroman-6-yl)-N-[2-(6-trifluoromethyl-pyridin-3-yl)-ethyl]-acetamide], the antagonist dissociation constant (Kb) (in general, the affinity of an antagonist, worked out from how it opposes an agonist) stood at 0.0116 µM.

As for `Cc1ccc(N(CCc2ccc(C(F)(F)F)nc2)C(=O)[C@@H](N)c2ccccc2)cc1C` [Example 1, (S)-2-Amino-N-(3,4-dimethyl-phenyl)-2-phenyl-N-[2-(6-trifluoromethyl-pyridin-3-yl)-ethyl]-acetamide], the Kb amounted to 0.0007 µM.

Take `Cc1ccc(N(CCc2ccc(C(F)(F)F)nc2)C(=O)[C@@H](O)c2ccccc2)cc1C` [Example 2, (S)—N-(3,4-Dimethyl-phenyl)-2-hydroxy-2-phenyl-N-[2-(6-trifluoromethyl-pyridin-3-yl)-ethyl]-acetamide]: the antagonist equilibrium constant (Kb) amounted to 0.0025 µM.

`Cc1ccc(N(CCc2ccc(C(F)(F)F)nc2)C(=O)[C@H](O)c2ccccc2)cc1C` [Example 3, (R)—N-(3,4-Dimethyl-phenyl)-2-hydroxy-2-phenyl-N-[2-(6-trifluoromethyl-pyridin-3-yl)-ethyl]-acetamide]: the Kb was 0.0159 µM.

For `COc1ccc(N(CCc2ccc(C(F)(F)F)nc2)C(=O)[C@@H](NC(=O)[C@@H](N)c2ccccc2)c2ccccc2)cc1OC` [Example 4, (S)-2-((S)-2-Amino-2-phenyl-acetylamino)-N-(3,4-dimethoxy-phenyl)-2-phenyl-N-[2(6-trifluoromethyl-pyridin-3-yl)-ethyl]-acetamide], the antagonist equilibrium constant (Kb) stood at 0.0017 µM.

Turning to `COc1ccc(N(CCc2ccc(C(F)(F)F)nc2)C(=O)[C@@H](N)c2ccccc2)cc1OC` [Example 5, (S)-2-Amino-N-(3,4-dimethoxy-phenyl)-2-phenyl-N-[2-(6-trifluoromethyl-pyridin-3-yl)-ethyl]-acetamide], the antagonist equilibrium constant (Kb) was found to be 0.0005 µM.

For the molecule `Cc1ccc(N(CCc2ccc(C(F)(F)F)nc2)C(=O)[C@@H](O)c2ccc(F)cc2)cc1C` [Example 7, (S)—N-(3,4-Dimethyl-phenyl)-2-(4-fluoro-phenyl)-2-hydroxy-N-[2-(6-trifluoromethyl-pyridin-3-yl)-ethyl]-acetamide], the antagonist dissociation constant (Kb) stood at 0.0005 µM.

Turning to `Cc1ccc(N(CCc2ccc(C(F)(F)F)nc2)C(=O)[C@@H](NC2(CN)COC2)c2ccccc2)cc1C` [Example 8, (S)-2-(3-Aminomethyl-oxetan-3-ylamino)-N-(3,4-dimethyl-phenyl)-2-phenyl-N-[2-(6-trifluoromethyl-pyridin-3-yl)-ethyl]acetamide], the antagonist dissociation constant (Kb) is 0.0263 µM.

`N[C@H](C(=O)N(CCc1ccc(C(F)(F)F)nc1)c1ccc2c(c1)CCCC2)c1ccccc1` [Example 9, (S)-2-Amino-2-phenyl-N-(5,6,7,8-tetrahydro-naphthalen-2-yl)-N-[2-(6-trifluoromethyl-pyridin-3-yl)-ethyl]-acetamide]: the antagonist equilibrium constant (Kb) is 0.0006 µM.

Regarding `Cc1ccc(N(CCc2ccc(C(F)(F)F)nc2)C(=O)[C@@H](N)c2ccc(F)cc2)cc1C` [Example 10, (S)-2-Amino-N-(3,4-dimethyl-phenyl)-2-(4-fluoro-phenyl)-N-[2-(6-trifluoromethyl-pyridin-3-yl)-ethyl]-acetamide], the antagonist dissociation constant (Kb) was 0.0014 µM.

For `O=C([C@@H](O)c1ccccc1)N(CCc1ccc(C(F)(F)F)nc1)c1ccc2c(c1)CCCC2` [Example 12, (S)-2-Hydroxy-2-phenyl-N-(5,6,7,8-tetrahydro-naphthalen-2-yl)-N-[2-(6-trifluoromethyl-pyridin-3-yl)-ethyl]-acetamide], the Kb worked out at 0.0015 µM.

Regarding `Cc1ccc(N(CCc2ccc(C(F)(F)F)nc2)C(=O)[C@@H](O)c2ccccc2)cc1` [Example 15, (S)-2-Hydroxy-2-phenyl-N-p-tolyl-N-[2-(6-trifluoromethyl-pyridin-3-yl)-ethyl]-acetamide], the Kb came out at 0.0241 µM.

Consider `Cc1ccc(N(CCc2ccc(C(F)(F)F)nc2)C(=O)Cc2ccccc2)cc1C` [Example 17, N-(3,4-Dimethyl-phenyl)-2-phenyl-N-[2-(6-trifluoromethyl-pyridin-3-yl)-ethyl]-acetamide], for which the Kb is 0.0362 µM.

In the case of `COc1cc(N(CCc2ccc(C(F)(F)F)nc2)C(=O)[C@@H](O)c2ccccc2)ccc1C` [Example 19, (S)-2-Hydroxy-N-(3-methoxy-4-methyl-phenyl)-2-phenyl-N-[2-(6-trifluoromethyl-pyridin-3-yl)-ethyl]-acetamide], the antagonist equilibrium constant (Kb) amounted to 0.0109 µM.

With `Cc1ccc(N(CCc2ccc(C(F)(F)F)nc2)C(=O)C(=O)c2ccccc2)cc1C` [Example 20, N-(3,4-Dimethyl-phenyl)-2-oxo-2-phenyl-N-[2-(6-trifluoromethyl-pyridin-3-yl)-ethyl]-acetamide], the Kb is 0.0916 µM.

For `Cc1ccc(CCN(C(=O)[C@@H](N)c2ccccc2)c2ccc(C)c(C)c2)nc1` [Example 21, (S)-2-Amino-N-(3,4-dimethyl-phenyl)-N-[2-(5-methyl-pyridin-2-yl)-ethyl]-2-phenyl-acetamide hydrochloride], the Kb came to 0.0047 µM.

Take `Cc1ccc(N(CCc2ccc(C(F)(F)F)nc2)C(=O)[C@@H](C)c2ccccc2)cc1C` [Example 24, (S)—N-(3,4-Dimethyl-phenyl)-2-phenyl-N-[2-(6-trifluoromethyl-pyridin-3-yl)-ethyl]-propionamide]: the Kb amounted to 0.0839 µM.

Turning to `Cc1ccc(N(CCc2ccc(C(F)(F)F)cn2)C(=O)[C@@H](N)c2ccccc2)cc1C` [Example 25, (S)-2-Amino-N-(3,4-dimethyl-phenyl)-2-phenyl-N-[2-(5-trifluoromethyl-pyridin-2-yl)-ethyl]-acetamide hydrochloride], the Kb was determined as 0.0008 µM.

With `Cc1ccc(N(CCc2ccc(C(F)(F)F)cn2)C(=O)[C@@H](O)c2ccccc2)cc1C` [Example 26, (S)—N-(3,4-Dimethyl-phenyl)-2-hydroxy-2-phenyl-N-[2-(5-trifluoromethyl-pyridin-2-yl)-ethyl]-acetamide], the antagonist equilibrium constant (Kb) was found to be 0.0038 µM.

`CCn1nc(C)c2cc(N(CCc3ccc(C(F)(F)F)nc3)C(=O)[C@@H](O)c3ccccc3)ccc21` [Example 48, (S)—N-(1-Ethyl-3-methyl-1H-indazol-5-yl)-2-hydroxy-2-phenyl-N-[2-(6-trifluoromethyl-pyridin-3-yl)-ethyl]-acetamide]: the Kb was found to be 0.07 µM.

Regarding `O=C([C@@H](O)c1ccccc1)N(CCc1ccc(C(F)(F)F)nc1)c1cnc2ccccc2c1` [Example 49], the antagonist dissociation constant (Kb) was 0.0361 µM.

On to `O=C([C@@H](O)c1ccccc1)N(CCc1ccc(C(F)(F)F)nc1)c1ccc2c(c1)OCCO2` [Example 55, (S)—N-(2,3-Dihydro-benzo[1,4]dioxin-6-yl)-2-hydroxy-2-phenyl-N-[2-(6-trifluoromethyl-pyridin-3-yl)-ethyl]-acetamide], for which the antagonist dissociation constant (Kb) worked out at 0.0142 µM.

In the case of `COc1cccc(N(CCc2ccc(C(F)(F)F)nc2)C(=O)[C@@H](O)c2ccccc2)c1` [Example 56, (S)-2-Hydroxy-N-(3-methoxy-phenyl)-2-phenyl-N-[2-(6-trifluoromethyl-pyridin-3-yl)-ethyl]-acetamide], the antagonist dissociation constant (Kb) stood at 0.0176 µM.

Consider `Cc1ccc(N(CCc2ccc(C(F)(F)F)nc2)C(=O)[C@@H](NC2COC2)c2ccccc2)cc1C` [Example 57, (S)—N-(3,4-Dimethyl-phenyl)-2-(oxetan-3-ylamino)-2-phenyl-N-[2-(6-trifluoromethyl-pyridin-3-yl)-ethyl]-acetamide], for which the Kb came to 0.0016 µM.

Values taken from patent US8133909B2 (Hoffmann-La Roche Inc., priority 2008, dated 2012).
